16 molecules from US20120046357A1, “Benzamide and Napthamide Derivatives Inhibiting Nuclear Factor-Kappa (B) - (NK-kB)” (Profectus Biosciences, Inc., priority 2009, published 2012) can be followed below.

Usually pEC50 stands for the negative decadic logarithm of the EC50, by convention in mol/L. Broadly, the inhibition is the share of the control response that was lost under treatment. Higher therefore signals a strong effect. Usually pIC50 stands for the IC50 on a negative log10 scale, so that one unit is a factor of ten. A low value points to a high IC50.

Experiment [1] concerns IL-6 release from RAW264.7 cells. Put plainly: LPS-stimulated IL-6 release from RAW264.7 cells (ELISA). To be noted: 2 h pretreatment, 1 μg/mL LPS 20-24 h, read-out: RAW 264.7 IL-6 release EC50. The format is cell-based, mouse. As to the method: RAW 264.7 cells were seeded at 4×10^4 cells per well n complete growth medium in 96 well white TC plates with clear bottoms one day prior to the assay. The next day the cells were washed once and 100 μL fresh growth media was added. Cells were pretreated with 0.5 μL from a 6 point 200× dilution series of the test compounds in DMSO for 2 hours. Following pretreatment with the drugs, the inflammatory response was induced by adding 5 μL of a 20 μg/mL solution of LPS (Sigma). The cells were incubated in the presence of the drugs and 1 μg/mL LPS for another 20-24 hours. Typically after treatment the total DMSO was […] of the culture volume and the final concentrations of the compounds were approximately: 40, 20, 10, 1, 0.2 and 0 μM depending on the MW of each compound. Modified dilution series were prepared as needed to get adequate dose response curves without changing the % DMSO. Samples were run in duplicate or triplicate and included DMSO treated control wells with and without LPS stimulation. Drugs with a known activity such as Parthenolide or DHMEQ were run as experimental controls. After 20-24 hours LPS activation, the media supernatant was collected from the cells and replaced with fresh media. The supernatant samples were cleared by centrifugation at 1,000×g for 5 minutes, transferred to fresh storage plates, and stored frozen at −30° C.
After determining the appropriate supernatant dilutions experimentally, mIL-6 levels in the supernatants were quantified using Quantikine™ mouse IL-6 immunoassay (R&D Systems) according to the manufacturer's protocol. […] diluted in Calibrator Diluent were added to 50 μL of Assay Diluent in microplate wells pre-coated with an anti-mouse IL-6 capture antibody. Controls included a calibrated positive IL-6 control sample, non-specific binding (NSB) wells containing Calibrator Diluent but no IL-6, and a recombinant mouse IL-6 standard dilution series (10-1000 pg/mL). The plates were incubated at room temperature for 2 hours with shaking and then washed 5 times with 400 μL 1× Wash Buffer. […] anti-mouse IL-6 antibody was added to each well to detect IL-6 captured on the plate. The plates were incubated at room temperature for 2 hours and then washed 5 times with 400 μL 1× Wash Buffer. Equal volumes of Color Reagents A and B were mixed and 100 μL of this HRP Substrate Solution was added to each well on the plate. The blue color was allowed to develop for 30 minutes and then the reaction was stopped using 100 μL of Stop Solution yielding a yellow color. Absorbance at 450 nm with a reference wavelength subtracted at 595 nm was recorded using a Becton-Dickinson DTX 880 Multimode Detector.
The concentration of mIL-6 in the unknown samples was determined from a curve-fit of the mIL-6 standard absorbance data and multiplying by the dilution factor. The maximum activity achieved in the absence of the inhibitor (DMSO+LPS treated wells) was arbitrarily given a value of 100%; likewise the minimum activity in the absence of the stimulant (no LPS) was assigned a value of 0%. Inhibition of the amount of mIL-6 cytokine released in the drug treated wells was calculated relative to the maximum activation in the DMSO+LPS treated control wells (ie. % inhibition=100−(drug+LPS treated)/(DMSO+LPS treated)). Dose response curves were used to determine the effective concentration to inhibit 50% of the mIL-6 cytokine released (IC50) by means of a SigmaPlot macro which fits a sigmoidal dose-response curve to the (log 10) μM concentration versus % inhibition. […] This technique yields an objective value for the IC50 provided that 50% inhibition was approached at the concentrations tested. FIG. 5 illustrates the effect of the compound of Example 10 on inhibiting IL-6 release.

The target in a further experiment is T1, c-Rel (Homo sapiens, UniProt Q04864).
T1 sequence (Q04864 2-619 limits assumed): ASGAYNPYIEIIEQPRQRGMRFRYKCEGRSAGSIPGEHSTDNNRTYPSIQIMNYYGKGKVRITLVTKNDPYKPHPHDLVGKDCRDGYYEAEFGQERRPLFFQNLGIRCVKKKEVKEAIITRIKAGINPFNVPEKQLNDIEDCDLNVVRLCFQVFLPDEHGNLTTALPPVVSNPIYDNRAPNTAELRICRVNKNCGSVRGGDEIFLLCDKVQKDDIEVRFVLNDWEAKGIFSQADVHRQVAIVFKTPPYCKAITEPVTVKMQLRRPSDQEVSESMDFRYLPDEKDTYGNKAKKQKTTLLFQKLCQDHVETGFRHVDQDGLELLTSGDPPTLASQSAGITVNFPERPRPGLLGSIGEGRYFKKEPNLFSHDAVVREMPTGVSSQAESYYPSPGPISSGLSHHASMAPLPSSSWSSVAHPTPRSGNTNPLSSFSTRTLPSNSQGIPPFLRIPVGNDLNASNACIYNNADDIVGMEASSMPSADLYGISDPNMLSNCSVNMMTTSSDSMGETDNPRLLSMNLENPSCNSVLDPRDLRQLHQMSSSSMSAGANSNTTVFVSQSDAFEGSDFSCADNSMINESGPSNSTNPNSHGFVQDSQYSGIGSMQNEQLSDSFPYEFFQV
Put plainly: TransAM NF-κB family DNA binding ELISA, c-Rel. The format is biochemical. To be noted: for pIC50: binding to NF-κB consensus oligonucleotide, cells without % sign. The protocol:
The binding activity of NF-κB heterodimer or homodimer subunits from activated nuclear extracts or purified recombinant NF-κB proteins exposed to the drug compounds was evaluated using the TransAM NF-κB Family binding ELISA (Active Motif). 3-5 μg of nuclear extracts from TNFα activated Hela or Raji cells (Active Motif) or 20 ng of purified recombinant proteins (p65 and p50 from Active Motif, p52 from Santa Cruz) were incubated for 1 hour at room temperature with 20 μL drug compounds diluted in Complete Lysis buffer without DTT. Treated samples were then transferred to 30 μL Complete Binding Buffer (with DTT) in microplate wells pre-coated with the NF-κB consensus oligonucleotide. […] The plate was incubated for 1 hour at room temperature with gentle shaking and then washed 3 times with 200 μL 1× Wash Buffer. NF-κB p65, p50, p52, RelB, or c-Rel subunits bound to the plate were detected with 100 μL of the primary antibody (diluted 1:1000 in 1× Antibody Buffer) specific for that subunit. The plate was incubated for 1 hour at room temperature and then washed 3 times with 200 μL 1× Wash Buffer. Next, 100 μL of a HRP conjugated goat anti-rabbit antibody (diluted 1:1,000 in 1× Antibody Buffer) was added to each well. The plate was incubated for 1 hour at room temperature and then washed 4 times with 200 μL 1× Wash Buffer. 100 μL of room temperature Developing Solution was added to each well. The reaction was allowed to develop for 2-10 minutes until a medium dark blue color developed (depending on the subunit activity in the lot of extract or lot of recombinant protein used) and then the reaction was stopped with 100 μL Stop Solution yielding a yellow color. Absorbance was recorded using a Becton-Dickinson DTX 880 Multimode Detector at 450 nm with a reference wavelength subtracted at 620 nm. FIGS. 2, 3 and 4 illustrate the effect of Example 10 on inhibiting RelA, RelB and c-Rel binding to NF-κB sites.
A general note: An ELISA detects its analyte on a solid surface through an enzyme-linked reagent.

[2] abbreviates: Mus musculus, RAW264.7, RAW264.7 cells.

pEC50, pIC50: −log10 of the molar value. Structures can show the parent of a compound that is named as a salt. Where two headings read alike, the source gives them in different places.

Turning to `O=C(NC1=CC(=O)C2OC2C1O)c1ccc(C(F)(F)F)cc1O` (racemic) [Example 1, 2-hydroxy-N-(2-hydroxy-5-oxo-7-oxabicyclo[4.1.0]hept-3-en-3-yl)-4-(trifluoromethyl)benzamide], the pEC50 in experiment [1] (setting [2]) was 5.51. This molecule also registered an inhibition at 5 µM at c-Rel of 1%.
The corresponding values for `O=C(NC1=CC(=O)C2OC2C1O)c1ccc(Cl)cc1O` (racemic) [Example 2, (±)-4-chloro-2-hydroxy-N-(2-hydroxy-5-oxo-7-oxabicyclo[4.1.0]hept-3-en-3-yl)benzamide] are 5.89 and 7%.
Taken in the same sequence, the figures for `Cc1ccc(C(=O)NC2=CC(=O)C3OC3C2O)c(O)c1` (racemic) [Example 3, (±)-2-hydroxy-N-(2-hydroxy-5-oxo-7-oxabicyclo[4.1.0]hept-3-en-3-yl)-4-methylbenzamide] were 6.32 and 5%.
Consider `Cc1cccc(C(=O)NC2=CC(=O)C3OC3C2O)c1O` (racemic) [Example 4, (±)-2-hydroxy-N-(2-hydroxy-5-oxo-7-oxabicyclo[4.1.0]hept-3-en-3-yl)-3-methylbenzamide], for which the pEC50 in experiment [1] (setting [2]) was 6.12. Moreover, at c-Rel, testing at 5 µM gave an inhibition of 0%.
The corresponding values for `COc1ccc(C(=O)NC2=CC(=O)C3OC3C2O)c(O)c1` (racemic) [Example 5, (±)-2-hydroxy-N-(2-hydroxy-5-oxo-7-oxabicyclo[4.1.0]hept-3-en-3-yl)-4-methoxybenzamide] are 6.38 and 6%.
Taken in the same sequence, the figures for `O=C(NC1=CC(=O)C2OC2C1O)c1cccc(Cl)c1O` (racemic) [Example 6, (±)-3-chloro-2-hydroxy-N-(2-hydroxy-5-oxo-7-oxabicyclo[4.1.0]hept-3-en-3-yl)benzamide] were 5.60 and 7%.
As for `O=C(NC1=CC(=O)C2OC2C1O)c1cc2ccccc2cc1O` (racemic) [Example 7, (±)-3-hydroxy-N-(2-hydroxy-5-oxo-7-oxabicyclo[4.1.0]hept-3-en-3-yl)-2-naphthamide], the negative logarithm of the EC50 (pEC50) in experiment [1] (setting [2]) was 5.85. The same molecule came in with an inhibition at 5 µM at c-Rel of 2%.
Taken in the same sequence, the figures for `O=C(NC1=CC(=O)C2OC2C1O)c1ccc2ccccc2c1O` (racemic) [Example 8, (±)-1-hydroxy-N-(2-hydroxy-5-oxo-7-oxabicyclo[4.1.0]hept-3-en-3-yl)-2-naphthamide] were 6.52 and 3%.
Taken in the same sequence, the figures for `O=C(NC1=CC(=O)C2OC2C1O)c1cc(Br)ccc1O` (racemic) [Example 9, (±)-5-bromo-2-hydroxy-N-(2-hydroxy-5-oxo-7-oxabicyclo[4.1.0]hept-3-en-3-yl)benzamide] were 5.19 and 20%.
As for `CN(C)c1ccc(C(=O)NC2=CC(=O)C3OC3C2O)c(O)c1` (racemic) [Example 10, (±)-4-(dimethylamino)-2-hydroxy-N-(2-hydroxy-5-oxo-7-oxabicyclo[4.1.0]hept-3-en-3-yl)benzamide], the pEC50 in experiment [1] (setting [2]) was 6.36. This molecule also had a pIC50 at c-Rel of 4.77.
The corresponding values for `COc1ccc2cc(O)c(C(=O)NC3=CC(=O)C4OC4C3O)cc2c1` (racemic) [Example 11, (±)-3-hydroxy-N-(2-hydroxy-5-oxo-7-oxabicyclo[4.1.0]hept-3-en-3-yl)-7-methoxy-2-naphthamide] are 6.07 and 4.80.
As to `O=C(NC1=CC(=O)C2OC2C1O)c1cc2cc(Br)ccc2cc1O` (racemic) [Example 15, (±)-7-bromo-3-hydroxy-N-(2-hydroxy-5-oxo-7-oxabicyclo[4.1.0]hept-3-en-3-yl)-2-naphthamide], the pEC50 in experiment [1] (setting [2]) is 6.66. Besides, the pIC50 at c-Rel was 5.43.
Taken in the same sequence, the figures for `COc1c(C(=O)NC2=CC(=O)C3OC3C2O)ccc(F)c1F` (racemic) [Example 16, (±)-3,4-difluoro-N-(2-hydroxy-5-oxo-7-oxabicyclo[4.1.0]hept-3-en-3-yl)-2-methoxybenzamide] were 6.57 and 5.09.
The corresponding values for `Cc1ccc(C(C)C)c(C(=O)NC2=CC(=O)C3OC3C2O)c1O` (racemic) [Example 17, (±)-2-hydroxy-N-(2-hydroxy-5-oxo-7-oxabicyclo[4.1.0]hept-3-en-3-yl)-6-isopropyl-3-methylbenzamide] are 6.32 and 3.63.
Turning to `CN(C)c1ccc(C(=O)NC2=CC(=O)C3OC3C2O)c(O)c1` (racemic) [Example 19, (±)-4-(dimethylamino)-2-hydroxy-N-(2-hydroxy-5-oxo-7-oxabicyclo[4.1.0]hept-3-en-3-yl)benzamide trifluoroacetate], the pEC50 in experiment [1] (RAW264.7 cells, trifluoroacetate) was 6.13. Also, the pIC50 at c-Rel is 4.85.
As to `COc1cc(N(C)C)ccc1C(=O)NC1=CC(=O)C2OC2C1O` (racemic) [Example 20, (±)-4-(dimethylamino)-N-(2-hydroxy-5-oxo-7-oxabicyclo[4.1.0]hept-3-en-3-yl)-2-methoxybenzamide], the pEC50 in experiment [1] (setting [2]) is 6.62. Further, at c-Rel, the pIC50 was 5.72.
